Data from US11174291B2, “Silstatin compounds” (Arizona Board of Regents on behalf of Arizona State …, priority 2015, dated 2021).

What was measured:
Assay type in all cases: cell-based, human
BXPC-3 = test: NCI sulforhodamine B growth inhibition, pancreas cancer cells; conditions: BXPC3 pancreas, 48 h
Experimental: (§1) Inhibition of human cancer cell growth was assessed using the National Cancer Institute's standard sulforhodamine B assay as previously described.^19In summary, cells in a 5% fetal bovine serum/RPMI1640 medium were inoculated in 96-well plates and incubated for 24 hrs. Next, serial dilutions of the compounds were added. After 48 h, the plates were fixed with trichloroacetic acid, stained with sulforhodamine B, and read with an automated microplate reader. A growth inhibition of 50% (GI50 or the drug concentration causing a 50% reduction in the net protein increase) was calcd from optical density data with Immunosoft software. Normal cells were treated in identical conditions. Normal human prostate CRL-2221 (PZ—HPV-7) was grown in MEM 10% FBS and normal human breast MCF-10A in MEGM kit.

MCF-7 = test: NCI sulforhodamine B growth inhibition, breast cancer cells; conditions: MCF-7 breast, 48 h
Experimental: as §1

KM20L2 = test: NCI sulforhodamine B growth inhibition, colon cancer cells; conditions: 48 h
Experimental: as §1

DU-145 = test: NCI sulforhodamine B growth inhibition, prostate cancer cells; conditions: DU145 prostate, 48 h
Experimental: as §1

SF268 = test: NCI sulforhodamine B growth inhibition, CNS cancer cells; conditions: 48 h
Experimental: as §1

NCI-H460 = test: NCI sulforhodamine B growth inhibition, lung cancer cells; conditions: 48 h
Experimental: as §1

Structure (SMILES) | Growth inhibition of human cancer cell lines GI50 (BXPC-3) [µg/mL] | Growth inhibition of human cancer cell lines GI50 (MCF-7) [µg/mL] | Growth inhibition of human cancer cell lines GI50 (KM20L2) [µg/mL] | Growth inhibition of human cancer cell lines GI50 (DU-145) [µg/mL] | Growth inhibition of human cancer cell lines GI50 (SF268) [µg/mL] | Growth inhibition of human cancer cell lines GI50 (NCI-H460) [µg/mL]
CC(C)C[C@H]1OC(=O)[C@H](Cc2ccc(OC(C)(C)C)cc2)NC(=O)[C@H](C)OC(=O)[C@@H](C(C)C)NC(=O)[C@@H](CC(C)C)OC(=O)[C@H](C(C)C)NC(=O)[C@H](C)OC(=O)[C@@H](C(C)C)NC(=O)[C@@H](CC(C)C)OC(=O)[C@H](C(C)C)NC(=O)[C@H](C)OC(=O)[C@@H](C(C)C)NC1=O [Silstatin 7c, Cyclo-{Tyr(tBu)-D-Hica-D-Val-Lac-[Val-D-Hica-D-Val-Lac]2}] | 0.03 | 0.0042 | 0.0048 | 0.011 | 0.0025 | 0.029
CC(C)C[C@H]1OC(=O)[C@H](C(C)C)NC(=O)[C@H](C)OC(=O)[C@@H](C(C)C)NC(=O)[C@@H](CC2CCCCC2)OC(=O)[C@H]([C@@H](C)OC(C)(C)C)NC(=O)[C@H](C)OC(=O)[C@@H](C(C)C)NC(=O)[C@@H](CC(C)C)OC(=O)[C@H](C(C)C)NC(=O)[C@H](C)OC(=O)[C@@H](C(C)C)NC1=O [Silstatin 17a, Cyclo-{Thr(tBu)-D-Hcha-D-Val-Lac-[Val-D-Hica-D-Val-Lac]2}] | 0.023 | 0.001 | 0.0024 | 0.007 | 0.004 | 0.009
CC(C)[C@@H]1NC(=O)[C@H](C)OC(=O)[C@@H](C(C)C)NC(=O)[C@@H](CC2CCCCC2)OC(=O)[C@H]([C@@H](C)OC(C)(C)C)NC(=O)[C@H](C)OC(=O)[C@@H](C(C)C)NC(=O)[C@@H](CC2CCCCC2)OC(=O)[C@H](C(C)C)NC(=O)[C@H](C)OC(=O)[C@@H](C(C)C)NC(=O)[C@@H](CC2CCCCC2)OC1=O [Silstatin 14b, Cyclo-{Thr(tBu)-D-Hcha-D-Val-Lac-[Val-D-Hcha-D-Val-Lac]2}] | 0.18 | 0.075 | 0.08 | 0.12 | 0.075 | 0.32
CC(C)[C@@H]1NC(=O)[C@H](C)OC(=O)[C@@H](C(C)C)NC(=O)[C@@H](CC2CCCCC2)OC(=O)[C@H](C(C)C)NC(=O)[C@H](C)OC(=O)[C@@H](C(C)C)NC(=O)[C@@H](CC2CCCCC2)OC(=O)[C@H](Cc2ccc(OC(C)(C)C)cc2)NC(=O)[C@H](C)OC(=O)[C@@H](C(C)C)NC(=O)[C@@H](CC2CCCCC2)OC1=O [Silstatin 14c, Cyclo-{Tyr(tBu)-D-Hcha-D-Val-Lac-[Val-D-Hcha-D-Val-Lac]2}] | >1 | >1 | >1 | >1 | >1 | >1
CC(C)C[C@H]1OC(=O)[C@H](C(C)C)NC(=O)[C@H](C)OC(=O)[C@@H](C(C)C)NC(=O)[C@@H](CC(C)C)OC(=O)[C@H](C(C)C)NC(=O)[C@H](C)OC(=O)[C@@H](C(C)C)NC(=O)[C@@H](CC2CCCCC2)OC(=O)[C@H](Cc2ccc(OC(C)(C)C)cc2)NC(=O)[C@H](C)OC(=O)[C@@H](C(C)C)NC1=O [Silstatin 17b, Cyclo-{Tyr(tBu)-D-Hcha-D-Val-Lac-[Val-D-Hica-D-Val-Lac]2}] | 0.09 | 0.032 | 0.052 | 0.04 | 0.06 | 0.12
